Data from patent publication US20170115308A1, “ASSAY TO MEASURE EFFICACY OF CDK8/19 INHIBITORS” (SENEX BIOTECHNOLOGY, INC., priority 2014, published 2017).

Assays:
[1] = test system: STAT1 S727 phosphorylation; assay: STAT1 S727 phosphorylation by immunoblotting in MDA-MB-361 breast cancer cells; type: cell-based, human; conditions: MDA-MB-361, 6 hr, 5 μM
Description: (§1) STAT1 S727 phosphorylation was analyzed by immunoblotting using the following primary antibodies: Phospho-Stat1 (Ser727) (D3B7) Rabbit mAb #8826 (used at 1:1000 dilution) and Rabbit Ab #9177 (used at 1:500 dilution) from Cell Signaling Technology (Danvers, Mass.), and total-STAT1 Stat1 p84/p91 Antibody (M-22): sc-592 from Santa Cruz Biotechnology (Dallas, Tex.), used at 1:500 dilution. As a loading control an antibody against a housekeeping protein GAPDH (6C5 mouse monoclonal antibody from Abcam), was used at 1:1000 dilution.
(§2) FIG. 3 illustrates the inhibition of basal STAT1 S727 phosphorylation by CDK8/19 inhibitors in human breast cancer cell lines.

[2] = test system: STAT1 S727 phosphorylation; assay: STAT1 S727 phosphorylation by immunoblotting in SKBR3 breast cancer cells; type: cell-based, human; conditions: SKBR3, 1 μM or 5 μM, after 30 min of treatment
Description: as §1, §2

[3] = test system: STAT1 S727 phosphorylation; assay: STAT1 S727 phosphorylation by immunoblotting in MCF7 breast cancer cells; type: cell-based, human
Description: as §1, §2

[4] = test system: STAT1 in complexes with CDK8; assay: CDK8 immunoprecipitation from HCT116 cells, immunoblotted for total STAT1 or phospho-STAT1 S727; type: cell-based, human; conditions: HCT116, 24 hrs, 10 μM
Text: To determine whether the effect of CDK8/19 inhibitors on STAT1 S727 phosphorylation involved direct interaction between CDK8 and STAT1, we have asked if STAT1 and CDK8 would co-immunoprecipitate, and if so, whether CDK8/19 kinase inhibition would affect STAT1 phosphorylation in complexes with CDK8.

[5] = test system: STAT1 S727 phosphorylation; assay: STAT1 S727 phosphorylation by immunoblotting in HCT116 colon carcinoma cells; type: cell-based, human; conditions: for inhibition of STAT1 S727 phosphorylation: HCT116, 24 hr treatment, different concentrations
Description: as §1
In the experiments shown in FIG. 2, this analysis was continued in HCT116 human colon carcinoma cells.

[6] = test system: STAT1 S727 phosphorylation; assay: STAT1 S727 phosphorylation by immunoblotting in LNCaP-LN3 derivatives (DV and DK); type: cell-based, human; conditions: treated for 5 hrs
Description: as §1
In the experiment shown in FIG. 1, human LNCaP-LN3 cells, an in vivo-derived metastatic variant of LNCaP prostate cancer cells were used. We have compared STAT1 S727 phosphorylation in two derivatives of LNCaP-LN3, one with shRNA knockdown of both CDK8 and CDK19 (CDK8 shRNA was expressed from lentiviral vector PHLB carrying blasticidin resistance marker; CDK19 shRNA was expressed from lentiviral vector pLKO.1 carrying puromycin resistance marker) (DK, double knockdown), and in control cells transduced with insert-free PHLB and pLK0.1 vectors (DV, double vector). […] The immunoblotting for phospho-STAT1 S727 (pSTAT1) and total STAT1 (tSTAT1) is shown in FIG. 1A, and image quantitation for the ratio of pSTAT1/tSTAT1 is shown in FIG. 1B. […]

[7] = test system: STAT1 S727 phosphorylation; assay: In situ immunofluorescence staining for phospho-STAT1 S727 and total STAT1 in HCT116 cells; type: cell-based, human
[8] = test system: STAT1 S727 phosphorylation; assay: In situ immunofluorescence staining for phospho-STAT1 S727 and total STAT1 in MCF7 cells; type: cell-based, human
[9] = test system: proteins bound at NFκB-regulated and housekeeping genes; assay: Chromatin immunoprecipitation (ChIP) with quantitative real-time PCR in 293 cells; type: cell-based, human
Text: Sonicated chromatin was immunoprecipitated with the antibodies against the indicated proteins. The ChIP preps were used for quantitative real-time PCR amplification of different segments of the indicated genes (X-axes show the positions of the tested segments relative to transcription start sites). The results of this analysis for all four conditions (blue, control; red, Senexin A; green, TNFα; purple, TNFα plus Senexin A) are shown, with the genomic positions of the PCR primers diagrammed at the top of the figure.
(Burke et al., 2014) have recently shown that STAT1 cooperates with NFκB in the induction of CXCL1 and CXCL2 transcription by IL-1β in rat insulinoma cells. We have therefore tested whether TNFα-induced CXCL1 and CXCL2 transcription in HEK-293 cells involves STAT1 and whether pSTAT1 in this system is affected by CDK8/19 inhibition. This analysis was conducted by chromatin immunoprecipitation (ChIP) of 293 cells that were pre-treated with 5 μM CDK8/19 inhibitor Senexin A (Porter et al., 2012) or carrier for one hour, at which point either TNFα at 10 ng/ml or carrier was added for 30 min. Sonicated chromatin was extracted as described (Galbraith et al., 2013) and immunoprecipitated with the antibodies against the indicated proteins. […] The results of this analysis for all four conditions (untreated, Senexin A, TNFα, and TNFα plus Senexin A) are shown in FIG. 5, with the genomic positions of the tested ChIP primers diagrammed at the top of the figure.

[10] = test system: STAT1 S727 phosphorylation; assay: STAT1 S727 phosphorylation in whole-cell protein extracts of 293 cells; type: cell-based, human; conditions: 5 μM
Description: (§3) Results are shown for three biological replicates.
as §1

[11] = test system: TNFα-induced CXCL1 and CXCL2 transcription; assay: Induction of NFκB-regulated genes by TNFα in HEK-293 cells; type: cell-based, human
[12] = test system: Pol II CTD phosphorylation; assay: Immunoblotting of total Pol II CTD phosphorylation in whole-cell lysates of 293 cells; type: cell-based, human; conditions: 293 whole-cell lysates, same conditions as the ChIP
Text: as §3

[13] = test system: STAT1 S727 phosphorylation; conditions: Bancerek et al., 2013; cited from earlier work
[14] = 5 μM pre-treatment one hour, TNFα 10 ng/ml 30 min

Compound: CN1CCN(C(=O)c2ccc3cc(CCNc4ncnc5ccc(C#N)cc45)ccc3c2)CC1 [Senexin B]
- inhibition of STAT1 S727 phosphorylation [1]: inhibits STAT1 S727 phosphorylation
- inhibition of STAT1 S727 phosphorylation, time course [2]: strong inhibition
- inhibition of STAT1 S727 phosphorylation, concentration series ([3]; MCF7, 24 hr treatment, indicated concentrations): concentration-dependent inhibition
- inhibition of STAT1 S727 phosphorylation ([3]; MCF7, 24 hr, 5 μM, two antibodies (#8826 and #9177)): inhibition of STAT1 S727 phosphorylation
- binding of total STAT1 to CDK8 (co-immunoprecipitation) [4]: does not affect the binding of total STAT1
- phospho-STAT1 S727 in CDK8 immunoprecipitate [4]: inhibits its phosphorylation at S727
- treatment time after which inhibition of STAT1 S727 phosphorylation is noticeable ([5]; HCT116, 5 μM): 15 min
- treatment time after which inhibition of STAT1 S727 phosphorylation is very strong ([5]; HCT116, 5 μM): 1 h
- inhibition of STAT1 S727 phosphorylation [5]: concentration-dependent inhibition
- concentration from which STAT1 S727 phosphorylation plateaus at a low level ([6]; LNCaP-LN3 DV and DK cells): 1 µM
- concentration from which basal STAT1 S727 phosphorylation is decreased (lowest concentration) ([6]; LNCaP-LN3 cells, pSTAT1/tSTAT1 ratio): 16 nM
- staining with phospho-STAT1 S727 antibody in situ [7]: inhibition of STAT1 S727 phosphorylation
- staining with the antibody against total STAT1 [7]: no apparent effect
- staining with phospho-STAT1 S727 antibody in situ [8]: inhibition of STAT1 S727 phosphorylation
- staining with the antibody against total STAT1 [8]: no apparent effect

Compound: N#Cc1ccc2ncnc(NCCc3ccccc3)c2c1 [Senexin A]
- Pol II recruitment and distribution along the regulated genes [9, 14]: moderate effect
- recruitment of p65 subunit of NFκB and CDK8 to promoters of NFκB-regulated genes [9, 14]: little or no effect
- phospho-STAT1 S727 (pSTAT1) at CXCL1 ([9]; 5 μM, TNFα): a strong effect
- phospho-STAT1 S727 (pSTAT1) at NFKBIA ([9]; 5 μM, TNFα): a weaker effect
- phospho-STAT1 S727 (pSTAT1) at the housekeeping genes ([9]; 5 μM, TNFα): little or no effect
- Pol II CTD phosphorylation (S5P, S2P) at the strongly regulated genes ([9]; 5 μM, TNFα, CXCL1 and CXCL2): strongly inhibited
- association of pSTAT1 with any of the tested genes ([9]; absence of TNFα, total of 90 min treatment): unaffected
- STAT1 S727 phosphorylation in whole-cell protein extracts [10]: strongly inhibited
- treatment time after which the effect on STAT1 S727 phosphorylation is noticeable [10]: 15 min
- treatment time after which the effect on STAT1 S727 phosphorylation is very strong [10]: 1 h
- regulation of housekeeping genes HGPRT and GAPDH [11]: not regulated
- inhibition of TNFα induction of CXCL1 ([11]; 5 μM, TNFα 10 ng/ml): ~10 fold
- inhibition of TNFα induction of CXCL2 ([11]; 5 μM, TNFα 10 ng/ml): ~10 fold
- inhibition of TNFα induction of NFKBIA ([11]; 5 μM, TNFα 10 ng/ml): ~1.4 fold
- total Pol II CTD phosphorylation [12]: not significantly affected

Compound: CN1CC[C@H](c2c(O)cc(O)c3c(=O)cc(-c4ccccc4Cl)oc23)[C@H](O)C1 [flavopiridol]
- enhancement of STAT1 S727 phosphorylation by LPS or anisomycin [13]: failed to inhibit

Compound: CN(C)C1CC23CCC4(O2)C(=CCC2(C)C(c5ccc6ccncc6c5)=CCC24)C=C3C(O)C1O (stereo not drawn) [16-didehydro-cortistatin A]
- inhibition of STAT1 S727 phosphorylation [5]: inhibited STAT1 S727 phosphorylation similarly to Senexin B

Compound: Cortistatin A
- inhibition of STAT1 S727 phosphorylation [5]: concentration-dependent inhibition
